Measurements taken from patent US4232155A, “Purine compounds” (Bristol-Myers Company, priority 1979, dated 1980).
Values after ≈ are worked out from the molar mass of the structure shown.

What was measured:
[1] = system: Tracheal chains of guinea pig; experiment: In vitro bronchodilator activity, relaxation of tracheal chains (Magnus method); conditions: Cavia porcellus, relative to 0.1 mcg./ml. isoproterenol, read-out: EC50 (concentration producing a relaxation which is 50% of the maximum response to 0.1 mcg./ml. of isoproterenol)
Method: Tracheal chains of guinea pig were prepared by the method of A. Akcasu, Arch. Int. […] The response to each test compound was recorded by the Magnus method and expressed as a percentage of the maximum response obtained with 0.1 mcg./ml. of isoproterenol prior to each experiment.

guinea pig = experiment: In vivo bronchodilator and hypotensive activity (intratracheal pressure and arterial blood pressure in anesthetized guinea pig); conditions: intravenous; for ED50: Cavia porcellus, bronchodilator activity, read-out: ITP ED50 (dose resulting in a 50% decrease in intratracheal pressure); for ABP ED20 (dose which reduces arterial blood pressure by 20%): hypotensive activity; for Ratio ABP/ITP (hypotensive ED20/bronchodilating ED50): separation of bronchodilator from hypotensive effect
Method: The trachea of anesthetized guinea pig was cannulated and the ITP recorded on a polygraph under artificial ventilation. Arterial blood pressure (ABP; reflecting hypotensive activity) was also measured during the experiment. Either intravenous or intraduodenal routes of administration are used. […] The ratio of hypotensive ED20 /brochodilating ED50 reflects an assessment of the separation of desirable brochodilator activity from undesirable cardiovascular (hypotensive) effect in the compounds.

Nc1nc(NC2CCCCC2)nc2c1ncn2C1CCCCC1 [Example 4, 9-Cyclohexyl-2-cyclohexylamino-9H-adenine]
EC50 [1]: 0.21 mg/L (≈ 0.668 µM) | ED50 (guinea pig): 1.5 mg/kg | ABP ED20 (dose which reduces arterial blood pressure by 20%) (guinea pig): > 3 mg/kg | Ratio ABP/ITP (hypotensive ED20/bronchodilating ED50) (guinea pig): > 2

Nc1nc(NC2CCCCC2)nc2c1ncn2C1C=CCCC1 (centres unmarked) [Example 2, 9-(2-Cyclohexenyl)-2-cyclohexylamino-9H-adenine]
EC50 [1]: 0.24 mg/L (≈ 0.768 µM) | ED50 (guinea pig): > 3 mg/kg | ABP ED20 (dose which reduces arterial blood pressure by 20%) (guinea pig): 2.4 mg/kg | Ratio ABP/ITP (hypotensive ED20/bronchodilating ED50) (guinea pig): < 0.8

CCCNc1nc(N)c2ncn(C3CCCCC3)c2n1 [Example 3, 9-Cyclohexyl-2-n-propylamino-9H-adenine]
EC50 [1]: 0.75 mg/L (≈ 2.73 µM) | ED50 (guinea pig): 0.49 mg/kg | ABP ED20 (dose which reduces arterial blood pressure by 20%) (guinea pig): 2.8 mg/kg | Ratio ABP/ITP (hypotensive ED20/bronchodilating ED50) (guinea pig): 5.7

CCCNc1nc(N)c2ncn(C3C=CCCC3)c2n1 (centres unmarked) [Example 1, 9-(2-Cyclohexenyl)-2-n-propylamino-9H-adenine]
EC50 [1]: 0.47 mg/L (≈ 1.73 µM) | ED50 (guinea pig): 1.4 mg/kg | ABP ED20 (dose which reduces arterial blood pressure by 20%) (guinea pig): > 3 mg/kg | Ratio ABP/ITP (hypotensive ED20/bronchodilating ED50) (guinea pig): > 2.1

Cn1c(=O)c2[nH]cnc2n(C)c1=O [Aminophylline, reference compound]
ABP ED20 (dose which reduces arterial blood pressure by 20%) (guinea pig): 1.4 mg/kg
